Experimental data as given in US20110097274A1, “Carbon-11 and fluorine-18 labeled radioligands for positron emission tomography (PET) imaging for the brain serotonin transporters” (priority 2002, published 2011).
Counter-ions that a name gives are not always drawn. Like-named read-outs stand apart in the source and are kept apart here.

Legend:
[1] = molecular target: T1, serotonin transporter (SERT) (Rattus norvegicus, UniProt P31652); assay: In vitro binding affinity for SERT, radioligand [^3H]paroxetine (Table 1); design: species or system rat or human (cloned)
T1 construct: membranes prepared from either the rat cortical tissues or cells expressed with cloned-human transporters; from tissue; host or cells: rat cortical tissue membranes (inferred; the alternative is cells expressing cloned human SERT)
T1 sequence (P31652 whole entry): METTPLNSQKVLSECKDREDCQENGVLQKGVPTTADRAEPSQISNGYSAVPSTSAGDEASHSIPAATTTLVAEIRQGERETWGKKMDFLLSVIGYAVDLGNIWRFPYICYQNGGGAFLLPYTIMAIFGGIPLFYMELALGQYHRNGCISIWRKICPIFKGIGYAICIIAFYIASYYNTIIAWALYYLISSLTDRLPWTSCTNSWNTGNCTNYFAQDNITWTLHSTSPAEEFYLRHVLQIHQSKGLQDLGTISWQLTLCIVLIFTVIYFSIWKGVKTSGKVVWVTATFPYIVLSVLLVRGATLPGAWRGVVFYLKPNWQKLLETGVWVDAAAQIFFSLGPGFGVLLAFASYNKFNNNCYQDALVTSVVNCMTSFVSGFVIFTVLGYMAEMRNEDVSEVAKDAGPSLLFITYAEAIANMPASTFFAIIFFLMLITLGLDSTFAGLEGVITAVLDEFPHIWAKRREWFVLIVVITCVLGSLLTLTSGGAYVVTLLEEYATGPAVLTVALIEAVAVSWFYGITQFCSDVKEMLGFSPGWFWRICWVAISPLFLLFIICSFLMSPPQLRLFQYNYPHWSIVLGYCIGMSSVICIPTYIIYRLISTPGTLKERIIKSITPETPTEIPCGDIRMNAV
Method: (§1) Selected compounds were assayed in vitro for their binding affinity for the dopamine transporter (DAT), serotonin transporter (SERT), and norepinephrine transporter (NET) using membranes prepared from either the rat cortical tissues or cells expressed with cloned-human transporters and radioligands. Radioligands used were [^3H]paroxetine (SERT), [^3H]nisoxetine (NET), and [^3H]GBR12935 (DAT).

[2] = molecular target: T2, dopamine transporter (DAT) (Homo sapiens, UniProt Q01959); assay: In vitro binding affinity for DAT, radioligand [^3H]GBR12935 (Table 1); design: species or system rat or human (cloned)
T2 construct: host or cells: either rat cortical tissue or cells expressing the cloned human transporter
T2 sequence (Q01959 whole entry, species assumed): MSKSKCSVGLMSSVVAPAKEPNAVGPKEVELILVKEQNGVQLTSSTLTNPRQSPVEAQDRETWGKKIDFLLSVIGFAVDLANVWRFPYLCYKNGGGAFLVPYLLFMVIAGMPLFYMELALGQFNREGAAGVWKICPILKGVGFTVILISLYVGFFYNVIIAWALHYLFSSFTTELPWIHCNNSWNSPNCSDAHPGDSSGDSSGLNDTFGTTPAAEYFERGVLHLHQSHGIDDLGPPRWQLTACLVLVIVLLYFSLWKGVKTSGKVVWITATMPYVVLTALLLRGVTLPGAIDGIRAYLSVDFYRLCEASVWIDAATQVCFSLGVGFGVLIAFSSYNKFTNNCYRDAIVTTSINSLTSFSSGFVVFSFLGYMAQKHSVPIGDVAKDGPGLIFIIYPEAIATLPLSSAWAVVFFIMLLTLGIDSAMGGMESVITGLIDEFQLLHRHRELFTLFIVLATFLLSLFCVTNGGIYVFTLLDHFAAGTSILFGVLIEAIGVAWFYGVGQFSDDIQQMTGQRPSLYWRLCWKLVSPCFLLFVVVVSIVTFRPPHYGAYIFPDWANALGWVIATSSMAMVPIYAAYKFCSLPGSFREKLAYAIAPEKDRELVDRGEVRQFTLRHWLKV
Method: as §1

[3] = In vitro logP measurement, octanol/phosphate buffer pH 7.4; format: physicochemical; settings: octanol/phosphate buffer pH 7.4, radiolabeled compound, mean ± SD, n = 8
Method: In vitro logP measurement: Octanol/water partition coefficient of the radiolabeled compounds were measured at Columbia University, using the method of Wilson et al. (2001), with some modifications. Briefly, 300 to 500 μCi of radioligand in EtOH was added to a separatory funnel containing octanol (20 mL) and phosphate buffer (20 mL, pH 7.4). The mixture was shaken mechanically for 3 minutes and the layers were separated. The octanol layer (15 mL) was transferred to a second separatory funnel containing 15 mL of the phosphate buffer (pH 7.4). The mixture was shaken mechanically for 3 minutes and the layers were separated. This second octanol layer was then partitioned into four test tubes (2 mL each) and the phosphate buffer (2 mL each) added. The test tubes were vortexed for 10 minutes, and then centrifuged for 10 minutes at 1000 rpm to separate the layers. The octanol and aqueous phases (1.0 mL each) were transferred into counting tubes and counted with a gamma counter (Wallac 1480 Wizard 3M Automatic Gamma Counter, Perkin-Elmer, Boston, Mass.). The radioactivity counts were decay-corrected and the partition coefficient calculated as P=counts in octanol/counts in buffer. Eight separate measurements were preformed for each tracer.

SERT [4] = molecular target: T3, SERT (Rattus norvegicus, UniProt P31652); assay: In vitro binding assay on rat frontal cortex homogenates using [^3H]paroxetine; design: from tissue; host or cells: frontal cortex of male Sprague-Dawley rats, washed membrane homogenate; settings: mean ± SD, n = 3
T3 sequence (P31652 whole entry): as the sequence (P31652 whole entry) above
Method: In vitro binding assays: Measurement of the inhibition constants (Ki) of the labeled compounds in FIG. 1 on rat frontal cortex homogenates were performed at Columbia University using [^3H]paroxetine, as previously described (Laruelle et al., 1988b). Briefly, male Sprague-Dawley rats (250-300 g) were killed by decapitation. Dissection of the brain was carried out on ice and samples of the frontal cortex were stored at −40° C. until binding assay. After thawing, samples were homogenized in 10 volumes of buffer (50 mM Tris-HCl, pH 7.4, 120 mM NaCl and 5 mM KCl). The homogenates were centrifuged at 10,000 rpm for 10 minutes. Pellets were resuspended in 10 volumes of buffer, incubated at 37° C. for 10 minutes, and centrifuged again. This procedure was then repeated a third time.
For the binding assay, membranes were suspended in buffer at a final protein concentration of 5 mg/mL. Unlabelled drugs were dissolved in dimethyl sulfoxide (DMSO) in borosilicate glass tubes to yield a 1 mM stock solution, from which subsequent serial dilutions were performed with the buffer. Aliquots of tissue preparation were incubated with [^3H]paroxetine (0.1 nM) at 22° C. or 37° C. for 60 minutes in the absence or presence of unlabelled drug (10^−5 to 10^−12 M) to yield a final volume of 0.5 mL (borosilicate glass tubes). Nonspecific binding was defined by incubation with 10 μM of citalopram. Each concentration was performed in triplicates. After incubation, the mixture was rapidly filtered through Whatman GF/B glass fiber filters using a 48-channel cell harvester (Brandel, Gaithersburg, Md.). The filters were washed 3 times with 4 mL each of ice cold buffer, placed in vials with 4 mL Ultima Gold solvent (Packard Instrument Co., Downers Grove, Ill.), and counted the following day for radioactivity in a liquid scintillation counter (Tricarb 1500, Packard Instrument Co., Downers Grove, Ill.). This experiment was performed three times at 22° C. and 37° C., on three different days. Ki values were derived using GraphPad Prism software (San Diego, Calif.).

SERT [5] = molecular target: T3, SERT; design: host or cells: rat brain membranes (for ADAM/IDAM); settings: literature; [^125I] ligands in rat brain membranes; cited from earlier work
[6] = humans, literature; cited from earlier work
[7] = molecular target: T4, norepinephrine transporter (NET) (Homo sapiens, UniProt P23975); assay: In vitro binding affinity for NET, radioligand [^3H]nisoxetine (Table 1); design: species or system rat or human (cloned)
T4 construct: host or cells: either rat cortical tissue or cells expressing the cloned human transporter
T4 sequence (P23975 whole entry, species assumed): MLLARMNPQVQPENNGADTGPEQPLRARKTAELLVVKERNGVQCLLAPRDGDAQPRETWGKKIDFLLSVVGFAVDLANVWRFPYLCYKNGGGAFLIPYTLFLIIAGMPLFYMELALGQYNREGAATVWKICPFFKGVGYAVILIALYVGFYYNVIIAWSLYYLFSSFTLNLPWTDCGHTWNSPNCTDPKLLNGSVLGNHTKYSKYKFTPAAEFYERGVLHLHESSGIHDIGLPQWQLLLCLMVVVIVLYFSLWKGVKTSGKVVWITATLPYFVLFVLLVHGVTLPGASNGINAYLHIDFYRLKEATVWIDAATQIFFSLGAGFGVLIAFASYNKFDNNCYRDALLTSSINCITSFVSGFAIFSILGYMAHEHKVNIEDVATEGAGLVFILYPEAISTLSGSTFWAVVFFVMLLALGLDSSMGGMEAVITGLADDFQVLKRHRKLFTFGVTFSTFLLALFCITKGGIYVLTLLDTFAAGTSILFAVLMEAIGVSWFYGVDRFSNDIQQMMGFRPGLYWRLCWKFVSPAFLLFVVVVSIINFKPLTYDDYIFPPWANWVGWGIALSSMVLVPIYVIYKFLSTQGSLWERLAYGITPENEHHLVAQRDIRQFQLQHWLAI
Method: as §1

[8] = literature (Laruelle et al., 1994a); cited from earlier work
SERT [9] = settings: literature; cited from earlier work
[10] = 22° C., read-out: Ki for SERT at 22° C.
[11] = 37° C., read-out: Ki for SERT at 37° C.

With `CN(C)Cc1ccccc1Sc1ccc(F)cc1N` (as salt: tartrate) [AFA, 2-(2-(Dimethylaminomethyl)phenylthio)-5-fluorophenylamine] the melting point was 158 to 159 °C.
For `CN(C)Cc1ccccc1Sc1ccc(C#N)cc1N` [DASB, 3-amino-4-{2-[(dimethylamino)methyl]phenylthio}benzonitrile], the Ki ([1]; read-out: Ki SERT) was 0.87 nM, the Ki [2] was > 10000 nM and the logP [3] was 2.38 ± 0.03. It also gave a Ki (SERT [4]; [10]) of 0.87 ± 0.41 nM and a Ki (SERT [4]; [11]) of 1.77 ± 0.25 nM.
In the case of `CSc1ccc(C2CN3CCCC3c3ccccc32)cc1` (single isomer, unassigned; (+)) [McN 5652, (+)-6β-(4-methylthiophenyl)-1,2,3,5,6α,10β-hexahydropyrrolo[2,1-a]isoquinoline], the logP [3] is reported as 2.51 ± 0.03.
`CN(C)Cc1ccccc1Sc1ccc(Br)cc1N` [DAPA, 5-bromo-2-{2[(dimethylamino)methyl]phenylthio}phenylamine] showed a logP [3] of 3.06 ± 0.12, a Ki (SERT [4]; [10]) of 0.38 ± 0.24 nM and a Ki (SERT [4]; [11]) of 0.33 ± 0.13 nM.
In the case of `CN(C)Cc1ccccc1Sc1ccc([125I])cc1N` [[^125I]ADAM], the Ki (SERT [5]) is given as 0.15 nM.
With `CNCc1ccccc1Sc1ccc(F)cc1N` (as salt: tartrate) [Example 41, 5-Fluoro-2-(2-(methylaminomethyl)phenylthio)phenylamine] the melting point was 106 to 108 °C.
In the case of `COc1c(O[11CH3])cccc1[C@H](O)C1CCN(CCc2ccc(F)cc2)CC1` [[^11C]MDL 100907], the “VT CER (nonspecific distribution volume)” value [6] is listed as 18 ± 4 mL/g.
`CNCc1ccccc1Sc1ccc(C)cc1N` (as salt: tartrate) [Example 39, 5-Methyl-2-(2-(methylaminomethyl)phenylthio)phenylamine] gave a melting point of 164 to 166 °C.
For `CN(C)Cc1ccccc1Sc1ccc(I)cc1N` [ADAM, 2-{2-[(dimethylamino)methyl]phenylthio}-5-iodophenylamine], the Ki [1] was 0.32 nM, the Ki [2] was > 10000 nM and the Ki [7] was 1350 nM. For the same molecule, the logP [3] was 3.31 ± 0.13, the Ki (SERT [5]) was 0.15 nM and the Ki (SERT [4]; [10]) was 0.32 ± 0.11 nM. For the same molecule, the Ki (SERT [4]; [11]) was 0.4 ± 0.16 nM.
For `COC(=O)C1C(c2ccc([123I])cc2)CC2CCC1N2C` (stereo not drawn) [[^123I]β-CIT, [^123I]2β-carbomethoxy-3β-(4-iodophenyl)tropane], the Plasma free fraction [8] is given as 40±5% and the “VT CER (nonspecific distribution volume)” value [6] is given as 28 ± 3 mL/g.
In the case of `CN(C)Cc1ccccc1Sc1ccc(CF)cc1N` (as salt: tartrate) [AFM, 2-(2-(Dimethylaminomethyl)phenylthio)-5-fluoromethylphenylamine], the melting point is reported as 142 to 143 °C.
With `CN(C)Cc1ccccc1Sc1ccc(CF)cc1N` [AFM, 2-(2-(Dimethylaminomethyl)phenylthio)-5-fluoromethylphenylamine] the Ki [1] was 0.23 nM, the Ki [2] was > 10000 nM and the Ki [7] was 664 nM. It also gave a logP [3] of 2.44 ± 0.03, a Ki (SERT [4]; [10]) of 0.23 ± 0.04 nM and a Ki (SERT [4]; [11]) of 0.42 ± 0.12 nM.
For `CN(C)Cc1ccccc1Sc1ccc(I)cc1CO` [[^123I]IDAM, 5-iodo-2-((2-((dimethylamino)methyl)phenyl)thio)benzyl alcohol], the Kd (SERT [9]) is listed as 0.25 nM.
For `CN(C)Cc1ccccc1Sc1ccc(I)cc1CO` [[^125I]IDAM], the Ki (SERT [5]) is given as 0.25 nM.
